Measurements reported in patent US20060204530A1, “Benzoyl peroxide compositions and methods of use” (JR CHEM, LLC, priority 2005, published 2006).

Test: Solubility of benzoyl peroxide in the disclosed solvents
Type: physicochemical
Conditions: room temperature
Procedure: In embodiments, benzoyl peroxide can be added to the solvents to form a mixture at room temperature, e.g., at a temperature of 25 to about 27° C. Additionally, the benzoyl peroxide/solvent mixture also can be added to other ingredients to form desired products, e.g., emulsions, lotions, creams or gels at low temperatures. […] However the key difference between the disclosed prior art and the present compositions is that the benzoyl peroxide will actively go into solution at levels as high as 10% by weight of the total formulation. These solutions can offer new clear products of increased efficacy.

SMILES: O=C(OOC(=O)c1ccccc1)c1ccccc1 [benzoyl peroxide]
- level at which benzoyl peroxide goes into solution: ≤ 10 % by weight of the total formulation
